Measurements as given in patent US8309685B2 (Celgene Avilomics Research, Inc., priority 2007, dated 2012).

Key:
[1] = test system: HCV RNA replicon in cell line ET (luc-ubi-neo/ET), human Huh7 hepatoma; assay: Method A: HCV RNA replicon antiviral assay (luciferase, ET cell line); assay type: cell-based, Hepatitis C virus; settings: Hepatitis C virus, Huh-7, assay described in Example 22; for IC50: read-out: Replicon (IC50)
Procedure: The compounds were assayed to evaluate the antiviral activity and cytotoxicity of compounds in vitro using HCV RNA replicons. This assay used the cell line ET (luc-ubi-neo/ET), which is a human Huh7 hepatoma cell line that contains an HCV RNA replicon with a stable luciferase (Luc) reporter and three cell culture-adaptive mutations. […]
The ET cell line was grown in Dulbecco's modified essential media (DMEM), 10% fetal bovine serum (FBS), 1% penicillin-streptomycin (pen-strep), 1% glutamine, 250 μg/ml G418 in a 5% CO2 incubator at 37° C. All cell culture reagents were obtained from Mediatech (Manassas, Va.). Cells were trypsinized (1% trypsin:EDTA) and plated out at 5×10^3 cells/well in white 96-well assay plates (Costar) dedicated to cell number (cytotoxicity) or antiviral activity assessments. Drugs were added at six 3-fold concentrations each and the assay was run in DMEM, 5% FBS, 1% pen-strep, 1% glutamine. Human interferon alpha-2b (PBL Biolabs, New Brunswick, N.J.) was included in each run as a positive control compound. Cells were processed 72 hr post drug addition when the cells are still subconfluent. Antiviral activity was measured by analyzing replicon-derived luciferase activity using the Steady-Glo Luciferase Assay System (Promega, Madison, Wis.) according to manufacturer's instruction. The number of cells in each well was determined by CytoTox-1 reagent (Promega). Compound profile was derived by calculating applicable EC50 (effective concentration inhibiting virus replication by 50%), EC90 (effective concentration inhibiting virus replication by 90%), IC50 (concentration decreasing cell viability by 50%) and SI50 (selective index: […]) values.

[2] = target: T1, wild type HCV NS3/4A 1b protease enzyme (Hepatitis C virus genotype 1b, UniProt P26663); assay: HCV Protease FRET Assay (IC50_APP), wild type; assay type: biochemical; settings: read-out: IC50_APP, WT; apparent IC50, wild type NS3/4A 1b
T1 construct: 10× stocks of NS3/4A protease enzyme from Bioenza (Mountain View, Calif.); purchased Bioenza (Mountain View, Calif.)
Procedure: (§1) HCV Protease FRET Assay for WT and Mutated NS3/4A 1b Enzymes (IC50—APP).
(§2) The following protocol was used to generate “apparent” IC50 (IC50—APP) values as depicted in Table 6, below. […] 5 μL of each enzyme were added to Corning (#3575) 384-well, black, microtiter plates (Corning, N.Y.) after spotting a 0.5 μL volume of 50% DMSO and serially diluted compounds prepared in 50% DMSO. Protease reactions were immediately started after enzyme addition with the addition of 45 μL of the FRET substrate and monitored for 60-90 minutes at λex485/λem520 in a Synergy^4 plate reader from BioTek (Winooski, Vt.). At the conclusion of each assay, progress curves from each well were examined for linear reaction kinetics and fit statistics (R^2, 95% confidence intervals, absolute sum of squares).
(§3) The compound numbers correspond to the compound numbers in Table 3. […] ;

[3] = target: T2, A156T mutant of the HCV NS3/4A 1b protease enzyme (Hepatitis C virus genotype 1b, UniProt P26663, A1182T); assay: HCV Protease FRET Assay (IC50_APP), A156T mutant; assay type: biochemical; settings: apparent IC50, A156T mutant; read-out: IC50_APP, HCV A156T
T2 construct: 10× stocks of NS3/4A protease enzyme from Bioenza (Mountain View, Calif.); purchased Bioenza (Mountain View, Calif.)
Procedure: as §1, §2, §3

[4] = target: T3, D168A mutant of the HCV NS3/4A 1b protease enzyme (Hepatitis C virus genotype 1b, UniProt P26663, D1194A); assay: HCV Protease FRET Assay (IC50_APP), D168A mutant; assay type: biochemical; settings: apparent IC50, D168A mutant; read-out: IC50_APP, HCV D168A
T3 construct: 10× stocks of NS3/4A protease enzyme from Bioenza (Mountain View, Calif.); purchased Bioenza (Mountain View, Calif.)
Procedure: as §1, §2, §3

Compound	IC90 [1]	IC50 [1]	IC50 [2]	IC50 [3]	IC50 [4]
C=CC(=O)N[C@@H](C(=O)N1C[C@H](Oc2cc(-c3ccccc3)nc3cc(OC)ccc23)C[C@H]1C(=O)N[C@]1(C(=O)NS(=O)(=O)C2CC2)C[C@H]1C=C)c1ccccc1 [Compound I-66, (2S,4R)-1-((R)-2-acrylamido-phenylacetyl)-N-((1R,2S)-1-(cyclopropylsulfonylcarbamoyl)-2-vinylcyclopropyl)-4-(7-methoxy-2-phenylquinolin-4-yloxy)pyrrolidine-2-carboxamide]	100 to 1000 nM	10 to 100 nM	< 10 nM	100 to 1000 nM	100 to 1000 nM
C=CC(=O)N(C)C[C@H](NC(=O)OC1CCCC1)C(=O)N1C[C@H](Oc2cc(-c3ccccc3)nc3cc(OC)ccc23)C[C@H]1C(=O)N[C@]1(C(=O)NS(=O)(=O)C2CC2)C[C@H]1C=C [Compound I-72]	10 to 100 nM	< 10 nM	< 10 nM	100 to 1000 nM	100 to 1000 nM
C=C[C@@H]1C[C@]1(NC(=O)[C@@H]1CC(Oc2cc(-c3ccccc3)nc3cc(OC)ccc23)CN1C(=O)OC(C)(C)C)C(=O)NS(=O)(=O)C1CC1 (some centres unmarked) [Compound I-62]	100 to 1000 nM	10 to 100 nM	< 10 nM	100 to 1000 nM	1000 to 10000 nM
C=C[C@@H]1C[C@]1(NC(=O)[C@@H]1C[C@@H](Oc2cc(-c3ccccc3)nc3cc(OC)ccc23)CN1C(=O)C(CN(C)C(=O)C(=C)C(F)(F)F)NC(=O)OC(C)(C)C)C(=O)NS(=O)(=O)c1ccccc1 (stereo in doubt) [Compound I-53, tert-butyl-(S)-1-((2S,4R)-4-(7-methoxy-2-phenylquinolin-4-yloxy)-2-((1R,2S)-1-(phenylsulfonylcarbamoyl)-2-vinylcyclopropylcarbamoyl)pyrrolidin-1-yl)-3-(N-methyl-2-(trifluoromethyl)acrylamido)-1-oxopropan-2-ylcarbamate]	> 10000 nM	100 to 1000 nM	< 10 nM	10 to 100 nM	100 to 1000 nM
C=CC(=O)N[C@@H](C(=O)N1C[C@H](Oc2cc(-c3ccccc3)nc3cc(OC)ccc23)C[C@H]1C(=O)N[C@]1(C(=O)NS(=O)(=O)C2CC2)C[C@H]1C=C)C(C)C [Compound I-56, (2S,4R)-1-((R)-2-acrylamido-3-methylbutanoyl)-N-((1R,2S)-1-(cyclopropylsulfonylcarbamoyl)-2-vinylcyclopropyl)-4-(7-methoxy-2-phenylquinolin-4-yloxy)pyrrolidine-2-carboxamide]	10 to 100 nM	< 10 nM	< 10 nM	10 to 100 nM	100 to 1000 nM
C=CC(=O)N(C)C[C@H](NC(=O)OC(C)(C)C)C(=O)N1C[C@H](Oc2nccc3ccc(Br)cc23)C[C@H]1C(=O)N[C@]1(C(=O)NS(=O)(=O)C2CC2)C[C@H]1C=C [Compound I-84, tert-butyl-(S)-1-((2S,4R)-4-(7-bromoisoquinolin-1-yloxy)-2-((1R,2S)-1-(cyclopropylsulfonylcarbamoyl)-2-vinylcyclopropylcarbamoyl)pyrrolidin-1-yl)-3-(N-methylacrylamido)-1-oxopropan-2-ylcarbamate]	100 to 1000 nM	10 to 100 nM	< 10 nM	100 to 1000 nM	100 to 1000 nM
C=C[C@@H]1C[C@]1(NC(=O)[C@@H]1C[C@@H](Oc2nccc3ccccc23)CN1C(=O)[C@H](CCC(=O)C=C(C)C)NC(=O)OC(C)(C)C)C(=O)NS(=O)(=O)C1CC1 [Compound I-86, tert-butyl-(S)-1-((2S,4R)-2-((1R,2S)-1-(cyclopropylsulfonylcarbamoyl)-2-vinylcyclopropylcarbamoyl)-4-(isoquinolin-1-yloxy)pyrrolidin-1-yl)-7-methyl-1,5-dioxooct-6-en-2-ylcarbamate]	10 to 100 nM	< 10 nM	< 10 nM	100 to 1000 nM	100 to 1000 nM
